18 compounds from PubChem BioAssay (NCI) can be followed below.

The structures appear in SMILES notation.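 All cell lines were grown in 96-well plates and treated with compound for 48 hours. GI50 marks 50% less growth. TGI denotes the concentration required for complete inhibition of growth.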 A value given as a limit tells only on which side of the number the result lay.

Holding throughout (test): DTP human tumour cell line panel, 48 h
In assay [1] the test system is HL-60(TB) leukemia.
The subject of assay [2] is NCI/ADR-RES ovarian.
For assay [3], the system named is NCI-H522 lung.
Assay [4] relates to SF-539 CNS.
Assay [5] deals with SF-295 CNS.
Assay [6] deals with U251 CNS.
Assay [7] deals with HT29 colon.
The subject of assay [8] is MCF7 breast.

As to `O=C1OCOC2(CCCC2)C1c1ccccc1` (stereo not given), the total growth inhibition concentration (TGI) in assay [1], in assay [2], in assay [3], in assay [4], in assay [5] and in assay [6] was over 100 µM each time. In assay [7], this compound registered a TGI of over 100 µM.

With `CSC(SC)=C(C#N)C(=O)Nc1ccc(Cl)cc1`, the TGI in assay [1] is 69.3 µM; in assay [2] it was over 100 µM; in assay [4], 67.7 µM; in assay [8] it was over 100 µM; in assay [6], over 100 µM; in assay [7] it was over 100 µM.

As to `COc1cc2c(cc1C)NC(=O)/C2=C/c1c(Cl)[nH]c2ccccc12`, the concentration for total growth inhibition (TGI) worked out at 7.37 µM in assay [1]; 20.5 µM in assay [3]; 4.15 µM in assay [4]; 16.1 µM in assay [8]; 5.52 µM in assay [5]; 16.9 µM in assay [6]. In addition, the TGI in assay [7] is 14.4 µM.

For `C(/C=C(\Nc1ccccc1)c1ccc2ccccc2c1)=Nc1ccccc1`, the TGI in assay [1] stood at 11.8 µM; in assay [2], 3.93 µM; in assay [3], 19 µM; in assay [4] it was 4.1 µM; in assay [8] it was 15.7 µM; in assay [5] it was 4.28 µM. This compound returned a TGI in assay [6] of 8.66 µM.

As to `c1ccc(-c2cc(-c3ccccc3)nc(-c3ccncc3)c2)cc1`, the TGI in assay [1], in assay [2], in assay [3], in assay [8], in assay [5] and in assay [6] was over 100 µM in each case.

With `O=C(OC[C@H]1C[C@H]2C(=O)OCCC[C@H]2O1)c1ccccc1`, the concentration for total growth inhibition (TGI) in assay [1], in assay [2], in assay [3], in assay [8], in assay [5] and in assay [6] was over 100 µM each time. This compound had a TGI in assay [7] of over 100 µM.

Turning to `C#C[C@]1(O)CC[C@H]2[C@@H]3CCC4=C/C(=N/OC(=O)c5cccc6cc7ccccc7nc56)CC[C@@H]4[C@H]3CC[C@@]21CC`, the concentration for total growth inhibition (TGI) in assay [1], in assay [2], in assay [4], in assay [8], in assay [6] and in assay [7] was over 100 µM throughout.

Turning to `O=C(NCC(O)COc1ccccc1)c1ccccc1O` (stereo not given), the TGI in assay [2], in assay [3], in assay [4], in assay [8], in assay [5] and in assay [6] was over 100 µM in each case.

With `Cc1cc2nc3c(N)nn(CCCN(C)C)c3nc2cc1C`, the TGI in assay [2], in assay [4], in assay [8], in assay [5], in assay [6] and in assay [7] was over 100 µM in each case.

Regarding `CCCCCCCC(=O)NC(C)(C)C(=O)NCC(=O)NC(CC(C)C)C(=O)NC(C)(C)C(=O)NCC(=O)NCC(=O)NC(CC(C)C)C(=O)NC(C)(C)C(=O)NCC(=O)NC(C(=O)NC(CO)CC(C)C)C(C)CC` (stereo not given), the total growth inhibition concentration (TGI) in assay [2] was determined as 9.12 µM; in assay [3], 7.26 µM; in assay [5], 7.76 µM; in assay [6], 5.33 µM; in assay [7], 7.42 µM.

Regarding `Cc1cccc(NC(=S)NNC(=O)c2cc(-c3ccccc3)nc3ccccc23)c1`, the concentration for total growth inhibition (TGI) was over 100 µM in assay [2]; 85.8 µM in assay [3]; 58.9 µM in assay [4]; 57.2 µM in assay [8]; 89.9 µM in assay [6]; over 100 µM in assay [7].

Take `COc1cccc(C2c3cc4c(cc3OC(NNS(=O)(=O)c3ccc(C)cc3)C2C)OCO4)c1O` (stereo not given): the TGI in assay [1] was 38.2 µM; in assay [3], 35.9 µM; in assay [4], 51.8 µM; in assay [8] it was 51.2 µM; in assay [5], 94.6 µM; in assay [6], over 100 µM. The TGI in assay [7] was 47.1 µM.

Take `C=CC[PH+](c1ccccc1)c1ccccc1.C=CC[PH+](c1ccccc1)c1ccccc1.[Pt+2].[S-]c1nc2ccccc2[nH]1.[S-]c1nc2ccccc2[nH]1`: the GI50 is 2.51 µM in assay [1]; 47.1 µM in assay [2]; 2.57 µM in assay [8]; 2.82 µM in assay [5]; 2.62 µM in assay [7]. Moreover, the TGI in assay [1] is 7.32 µM; in assay [2] it was over 100 µM; in assay [8], 9.91 µM; in assay [5], 8.44 µM; in assay [7], over 100 µM.

Consider `O=C(Cn1c(=O)oc2ccccc21)N(c1ccccc1)c1ccccc1`, for which the concentration for total growth inhibition (TGI) in assay [1], in assay [2], in assay [4], in assay [8], in assay [5] and in assay [6] was over 100 µM each time. In addition, the concentration for total growth inhibition (TGI) in assay [7] is over 100 µM.

For the compound `NC1=Nc2ncccc2C(=O)NN1`, the total growth inhibition concentration (TGI) in assay [1], in assay [4], in assay [8], in assay [5], in assay [6] and in assay [7] was over 10 µM each time.

For `Cc1n[nH]c(=O)c2c3c([nH]c12)-c1ccccc1C3`, the TGI in assay [2], in assay [3], in assay [4], in assay [8], in assay [5] and in assay [6] was over 100 µM each time. Besides, the TGI in assay [7] was over 100 µM.

On to `CCN(CC)C(=O)N[C@@H](CC(C)C)C(=O)NC`, for which the TGI in assay [1], in assay [2], in assay [3], in assay [8], in assay [5] and in assay [6] was over 100 µM throughout. This compound also had a TGI in assay [7] of over 100 µM.

For the compound `Clc1ccc(Cc2nc3cc4ccccc4cc3[nH]2)cc1Cl`, the TGI was 59.2 µM in assay [1]; 96.4 µM in assay [2]; 29 µM in assay [3]; 41.3 µM in assay [4]; 67.3 µM in assay [8]; 78.3 µM in assay [6]. In assay [7], this compound came in with a TGI of 28.5 µM.

What is called TGI is the concentration giving total growth inhibition. High values mean lower sensitivity of the cells, low ones greater sensitivity of the cells. Broadly, the GI50 is the concentration giving 50% growth inhibition.
